# Earlier results in US4439425A, “Peptide derivatives” (Ciba-Geigy Corporation, priority 1979, dated 1984).
# Test system: lymphocytes
# Details: Z. Immun.-Forschung 153, 11-22 (1977)
substance,measurement,value
murein lipoprotein: murein lipoprotein of the outer cell wall of Escherichia coli,in vitro mitogenic activity,in vitro mitogenic activity towards some lymphocytes
